# Source: patent US20070212339A1, “Use Of At Least One Effector Of Glutathione Metabolism Together With Alpha-Lipoic Acid For The Treatment Of Chronically Obstructive Lung Diseases” (ESPARMA GMBH, priority 2003, published 2007)
# How the values were obtained:
# [1] = test system: primary alveolar macrophages of COPD patients; experiment: Cellular thiol status (CMFDA) of primary alveolar macrophages of COPD patients; type: cell-based, human; conditions: for Thiols, intracellular (CMFDA)[%]: RPMI1640
# Protocol: The intercellular thiol content at the individual cell level was determined using 5-chloromethylfluorescein diacetate (CMFDA) in flow cytofluorimetry [Cytometry 1994; 15:349-358, Cytometry 1997; 29:76-82]. CMFDA which is primarily non-fluorogenic is here passively absorbed by the cell. Via the chloromethyl residue there is binding to cytoplasmatic thiol groups. After the acetate residues have been split off by unspecific cellular esterases, this complex which is now cell membrane-impermeable becomes fluorogenic at an excitation wavelength of λex=490 nm with an emission wavelength of λem=520 nm. The mean fluorescence intensity of the sample (10,000 cells) is directly proportional to the concentration of the intracellular thiol groups. Alveolar macrophages were isolated from the bronchoalveolar lavage fluid of COPD patients, taken up in cell culture medium and incubated in a gassing incubator at 37° C., a relative air humidity of 98% and a relative air-CO2 content of 7.5%. In order to check the influence of the combinations used according to the invention on the thiol status of the […] macrophages, in each case one fraction was treated with α-lipoic acid, the effector of glutathione metabolism ambroxol or with the combination of α-lipoic acid/ambroxol, whilst another fraction was used in each case as an untreated control. Untreated alveolar macrophages from healthy, non-COPD patients served as the normal comparison. The cellular thiol status was determined by means of the measuring method described under 1. The effect of the combination of α-lipoic acid and ambroxol in time kinetics over 96 hours in relation to healthy cells is shown in Table 5. In a test assembly identical to that of Example 3, alveolar macrophages from COPD patients were in each case treated with α-lipoic acid, the effector silibinin or with the combination of α-lipoic acid/silibinin, whilst another fraction was again used in each case as an untreated control. Untreated alveolar macrophages from healthy, non-COPD patients served here, too, as the normal comparison. The cellular thiol status was determined by means of the measuring method described under 1. The effect of the combination of α-lipoic acid and silibinin in time kinetics over 96 hours in relation to healthy cells is shown in Table 6.
# [2] = test system: primary alveolar macrophages of COPD patients; experiment: Phagocytosis rate of primary alveolar macrophages of COPD patients (cytofluorimetric test with opsonized fluorochrome-marked bacteria); type: cell-based, human; conditions: for Phagoburst (mfi) [%]: RPMI1640; for phagocytosis rate: monosubstances, by comparison with the untreated control
# Protocol: In a similar procedure to the one described in Example 3, alveolar macrophages were isolated and cultivated ex vivo. The phagocytosis efficiency was determined by a cytofluorimetric test at the single-cell level. The macrophages were co-cultivated with opsonized and fluorochrome-marked bacteria. The amount of bacteria absorbed in a defined period of time was assessed quantitatively via the fluorescence intensity in the macrophages and counted as the measurement for their capacity for phagocytosis. The influence of the combinations used according to the invention on the capacity of the […] macrophages for phagocytosis after a treatment period of up to 96 hours is shown in Table 7.
# [3] = test system: alveolar macrophage cell line CRL 21-92 (NR8383); experiment: Intracellular thiol content (CMFDA, flow cytofluorimetry) of artificially thiol-depleted alveolar macrophage cell line; type: cell-based; conditions: αLA 10.0 μg/ml alone, TDM
# Protocol: (§1) The established normal alveolar macrophage cell line CRL 21-92 (NR8383 [AgC11x3A; NR8383.1]) was used. The cells were taken up in special cell culture media and incubated in a gassing incubator at 37° C., a relative air humidity of 98% and a relative air-CO2 content of 5%. In order to check the influence of the combinations used according to the invention on the thiol status of thiol-deficient alveolar macrophages, these were artificially thiol-depleted. This came about by cultivation in thiol-deficient media (TDM) according to tested methods [Free Radic Biol Med 2000; 29:1160-1165]. Comparative cultures using complete media (RPMT 1640) were used for defining the best possible normal value under culture conditions. The intercellular thiol content at the individual cell level was determined using 5-chloromethylfluorescein diacetate (CMFDA) in flow cytofluorimetry [Cytometry 1994; 15:349-358, Cytometry 1997; 29:76-82]. CMFDA which is primarily non-fluorogenic is here passively absorbed by the cell. Via the chloromethyl residue there is binding to cytoplasmatic thiol groups. After the acetate residues have been split off by unspecific cellular esterases, this complex which is now cell membrane-impermeable becomes fluorogenic at an excitation wavelength of λex=490 nm with an emission wavelength of λem=520 nm. The mean fluorescence intensity of the sample (10,000 cells) is directly proportional to the concentration of the intracellular thiol groups. The expression of membrane-bound thiol groups was also determined by means of flow cytofluorimetry. Chloromethyl tetramethyl rhodamine (CMTMR) was used as the thiol conjugate under conditions of a blocked membrane potential and an inhibited diffusion capacity of the cells, [Exp Hematol 1997; 25(7): 601-607]. The fluorescence intensity of the bound fluorochrome molecules on the cell membrane is here again proportional to the quantity of thiol groups on the cell surface. Immortalised alveolar macrophages were artificially thiol-depleted in the above-described test assembly. The influence of the substances used according to the invention was checked over a period of 96 hours by measuring the intracellular thiol content and the membrane expression of thiols. Immortalised alveolar macrophages were artificially thiol-depleted in the test assembly described in Example 1. The influence of the substances used according to the invention was checked over a period of 96 hours by measuring the intracellular thiol content and the membrane expression of thiols.
# [4] = test system: alveolar macrophage cell line CRL 21-92 (NR8383); experiment: Membrane-bound thiol expression (CMTMR, flow cytofluorimetry) of artificially thiol-depleted alveolar macrophage cell line; type: cell-based; conditions: αLA 10.0 μg/ml alone, TDM
# Protocol: as §1, with “conditions.” for “conditions. The intercellular thiol content at the individual cell level was determined using 5-chloromethylfluorescein diacetate (CMFDA) in flow cytofluorimetry [Cytometry 1994; 15:349-358, Cytometry 1997; 29:76-82]. CMFDA which is primarily non-fluorogenic is here passively absorbed by the cell. Via the chloromethyl residue there is binding to cytoplasmatic thiol groups. After the acetate residues have been split off by unspecific cellular esterases, this complex which is now cell membrane-impermeable becomes fluorogenic at an excitation wavelength of λex=490 nm with an emission wavelength of λem=520 nm. The mean fluorescence intensity of the sample (10,000 cells) is directly proportional to the concentration of the intracellular thiol groups.”
structure (smiles),measurement,setting,value
"COc1cc(C2Oc3cc([C@H]4Oc5cc(O)cc(O)c5C(=O)[C@@H]4O)ccc3OC2CO)ccc1O (stereo partly shown) [Silibinin, silibinin]","Thiols, intracellular (CMFDA)[%]","[1]; 24 h, Silibinin 70 μg/ml alone",56.1 ± 12.4%
same,"Thiols, intracellular (CMFDA)[%]","[1]; 48 h, Silibinin 70 μg/ml alone",59.0 ± 56.8%
same,"Thiols, intracellular (CMFDA)[%]","[1]; 72 h, Silibinin 70 μg/ml alone",44.7 ± 14.0%
same,"Thiols, intracellular (CMFDA)[%]","[1]; 96 h, Silibinin 70 μg/ml alone",49.4 ± 14.5%
same,Phagoburst (mfi) [%],"[2]; 24 h, Silibinin 70.0 μg/ml alone",55.1 ± 12.2 %
same,Phagoburst (mfi) [%],"[2]; 48 h, Silibinin 70.0 μg/ml alone",57.6 ± 8.5%
same,Phagoburst (mfi) [%],"[2]; 72 h, Silibinin 70.0 μg/ml alone",54.2 ± 13.8%
same,Phagoburst (mfi) [%],"[2]; 96 h, Silibinin 70.0 μg/ml alone",59.9 ± 21.2%
"O=C(O)CCCCC1CCSS1 (stereo not drawn) [αLA, α-lipoic acid]","Thiols, intracellular (CMFDA)[%]","[3]; Table 1, 24 h",70.2 ± 8.4%
same,"Thiols, intracellular (CMFDA)[%]","[3]; Table 1, 48 h",58.9 ± 10.4%
same,"Thiols, intracellular (CMFDA)[%]","[3]; Table 1, 72 h",78.1 ± 30.0%
same,"Thiols, intracellular (CMFDA)[%]","[3]; Table 1, 96 h",72.5 ± 19.1%
same,"Thiols, intracellular (CMFDA)[%]","[3]; Table 3, 24 h",69.2 ± 28.2%
same,"Thiols, intracellular (CMFDA)[%]","[3]; Table 3, 48 h",91.1 ± 16.6%
same,"Thiols, intracellular (CMFDA)[%]","[3]; Table 3, 72 h",88.6 ± 26.2%
same,"Thiols, intracellular (CMFDA)[%]","[3]; Table 3, 96 h",114.8 ± 33.2%
same,"Thiols, in membrane (CMTMR)[%]","[4]; Table 2, 24 h",91.1 ± 66.3%
same,"Thiols, in membrane (CMTMR)[%]","[4]; Table 2, 48 h",165.5 ± 36.3%
same,"Thiols, in membrane (CMTMR)[%]","[4]; Table 2, 72 h",82.3 ± 42.1%
same,"Thiols, in membrane (CMTMR)[%]","[4]; Table 2, 96 h",118.9 ± 76.6%
same,"Thiols, in membrane (CMTMR)[%]","[4]; Table 4, 24 h",108.8 ± 38.2%
same,"Thiols, in membrane (CMTMR)[%]","[4]; Table 4, 48 h",126.2 ± 68.6%
same,"Thiols, in membrane (CMTMR)[%]","[4]; Table 4, 72 h",90.7 ± 28.1%
same,"Thiols, in membrane (CMTMR)[%]","[4]; Table 4, 96 h",107.3 ± 57.4%
same,cellular thiol expression,"[1]; Example 3, monosubstances",no effect
same,cellular thiol expression,"[1]; Example 4, monosubstances",no modulation
same,"Thiols, intracellular (CMFDA)[%]","[1]; Table 5, 24 h, αLA 10.0 μg/ml alone",60.3 ± 21.0%
same,"Thiols, intracellular (CMFDA)[%]","[1]; Table 5, 48 h, αLA 10.0 μg/ml alone",58.0 ± 17.0%
same,"Thiols, intracellular (CMFDA)[%]","[1]; Table 5, 72 h, αLA 10.0 μg/ml alone",46.2 ± 19.8%
same,"Thiols, intracellular (CMFDA)[%]","[1]; Table 5, 96 h, αLA 10.0 μg/ml alone",62.4 ± 6.3%
same,"Thiols, intracellular (CMFDA)[%]","[1]; Table 6, 24 h, αLA 10.0 μg/ml alone",60.3 ± 21.0%
same,"Thiols, intracellular (CMFDA)[%]","[1]; Table 6, 48 h, αLA 10.0 μg/ml alone",58.0 ± 68.6%
same,"Thiols, intracellular (CMFDA)[%]","[1]; Table 6, 72 h, αLA 10.0 μg/ml alone",46.2 ± 19.8%
same,"Thiols, intracellular (CMFDA)[%]","[1]; Table 6, 96 h, αLA 10.0 μg/ml alone",62.4 ± 6.3%
same,Phagoburst (mfi) [%],"[2]; 24 h, αLA 10.0 μg/ml alone",59.0 ± 11.7%
same,Phagoburst (mfi) [%],"[2]; 48 h, αLA 10.0 μg/ml alone",60.2 ± 12.4%
same,Phagoburst (mfi) [%],"[2]; 72 h, αLA 10.0 μg/ml alone",50.7 ± 9.0%
same,Phagoburst (mfi) [%],"[2]; 96 h, αLA 10.0 μg/ml alone",64.9 ± 14.3%
same,phagocytosis rate,[2],had not altered
"Nc1c(Br)cc(Br)cc1CN[C@H]1CC[C@H](O)CC1 [Ambroxol, ambroxol]","Thiols, intracellular (CMFDA)[%]","[1]; 24 h, Ambroxol [10.0 μ/ml] alone",67.4 ± 16.4%
same,"Thiols, intracellular (CMFDA)[%]","[1]; 48 h, Ambroxol [10.0 μ/ml] alone",61.8 ± 11.5%
same,"Thiols, intracellular (CMFDA)[%]","[1]; 72 h, Ambroxol [10.0 μ/ml] alone",61.6 ± 20.8%
same,"Thiols, intracellular (CMFDA)[%]","[1]; 96 h, Ambroxol [10.0 μ/ml] alone",67.1 ± 8.4%
same,cellular thiol expression,"[1]; Example 3, monosubstances",only a marginal rise
same,Phagoburst (mfi) [%],"[2]; 24 h, Ambroxol 10 μM alone",53.3 ± 10.9%
same,Phagoburst (mfi) [%],"[2]; 48 h, Ambroxol 10 μM alone",59.2 ± 12.4%
same,Phagoburst (mfi) [%],"[2]; 72 h, Ambroxol 10 μM alone",55.2 ± 19.2%
same,Phagoburst (mfi) [%],"[2]; 96 h, Ambroxol 10 μM alone",61.9 ± 22.1%
same,phagocytosis rate,[2],had not altered
